According to patent US5134073A, “Microbiologically produced N-acetyl-2,3-didehydroleucine acylase” (Degussa Aktiengesellschaft, priority 1989, dated 1992):
Values joined by “and” are separate entries in the source; they are usually repeats but may differ in a detail not shown here. Equal values may be shown once.

Columns and labels:
[1] = test system: N-acetyldehydroleucine acylase; assay: Hydrolysis of hydantoins by the acylase; type: biochemical, Zoogloea ramigera; conditions: 25 mM substrate, 1 U/ml acylase, tris/phosphoric acid pH 9, 11.5 hours at 30° C.; ADL = 100%
Procedure: The test batches for the hydrolysis of hydantoins had the following composition:
25 mM substrate or buffer
50 mM tris/phosphoric acid buffer
Isopropylhydantoin, hydantoic acid and dihydrouracil were used as substrates. After 11.5 hours at 30° C., 175 μl 12% (w/v) trichloroacetic acid and 25 μl analytical reagent (10 % (w/v) […] in 6 N HCl) were added, precipitated protein centrifuged off in an Eppendorf table centrifuge and the absorption in the supernatants measured at 450 nm.

Zoogloea ramigera ABI 1 = assay: Induction of N-acetyldehydroleucine acylase in agitated cultures, changing of the inductor; type: cell-based; conditions: inductor 3 g/l; for Acylase activity after 60 hours of incubation as a function of the inductor: agitated culture, pH 7
Procedure: All raw extracts were tested at least with N-acetyldehydroleucine and N-acetyldehydroisoleucine but, in most cases, also with N-acetyldehydrovaline. […] The enzymatic reaction was stopped in the batches incubated at 30° C. by adding 0.25 ml color reagent (1 g/l 2,4-dinitrophenyl hydrazine in 2 N HCl). After further incubation at 30° C. for 10 minutes with N-acetyldehydroleucine as substrate or 25 minutes with the isoleucine or valine derivative, 1.5 ml 2,5 N NaOH was added.
The keto acid released by the enzymatic hydrolysis forms, together with the 2,4-dinitrophenyl hydrazine, a Schiff's base colored red in the alkaline whose absorption was measured in a spectral photometer at 442 nm against a batch without N-acetyldehydroamino acid (=enzyme blank). A blank reading was deducted from these extinction values which blank reading is obtained if the extinction value of a batch only with buffer (=buffer blank) is deducted from that of a batch with buffer and N-acetyldehydroamino acid but without raw extract (=substrate blank). The concentration of the product produced was determined with a calibrated reference for the corresponding keto acid. The enzyme activity is indicated in international units. One unit (U) corresponds to an amount of 1 μmole released keto acid per minute.
Different substances were added in a concentration of 3 g/l as inductors into agitated cultures with a medium of mineral salt solution (cf. Example 1) with 0.5 g/l yeast extract and 0.5 g/l peptone at pH 7. The technology for agitated cultures is described in Example 1 a).

[2] = test system: N-acetyldehydroleucine acylase; assay: Hydrolysis of other compounds by the acylase (TLC / amino acid analyzer); type: biochemical, Zoogloea ramigera
Procedure: A qualitative check was performed for 81 compounds to see whether they are accepted as substrate by the acylase. The test batches contained:
After 16 and 40 hours incubation at 25° C., specimens were taken from the batches, most of which specimens were analyzed in comparison to substrate standards by means of thin-layer chromatography (70% (v/v) ethanol as mobile solvent). The detection took place with ninhydrin spray reagent. A few specimens were tested in addition or alternatively with the amino acid analyzer.
The amino acids produced from the amino acid amides by means of the action of acylase were detected quantitatively with the amino acid analyzer.

[3] = test system: N-acetyldehydroleucine acylase; assay: Acylase activity versus concentration of N-acetyldehydroamino acids (kinetic data); type: biochemical, Zoogloea ramigera
Procedure: The activity of the acylase was determined under standard conditions (cf. Example 8a)) with various N-acetyldehydroamino acids in concentrations of 0.1 to 300 mM. A second series of measurements with N-acetyldehydroleucinein the above-indicated concentration range was placed in 0.1 M tris/phosphoric acid buffer.
Reaction conditions: 0.1 M glycine, pH 9, 30° C.
Adaptation to the equation v = Vmax. · S/(KM + S +

ADL acylase = assay: Influence of glycine on the reaction rate; type: biochemical, Zoogloea ramigera
Procedure: The reaction of glycine in 0 to 1.2 molar concentration dissolved in 0.1 M tris/HCl buffer was determined under standard conditions (example 8a).

CC(C)C1NC(=O)NC1=O (stereo not shown) [Isopropy hydantoin]
rel. activity (%) [1]: 0%

CCC(C)=C(NC(C)=O)C(=O)O [ADI, N-acetyl-2,3-didehydroisoleucine]
Acylase activity after 60 hours of incubation as a function of the inductor (Zoogloea ramigera ABI 1): 0.172 U/mg | Substrate specificity: hydrolysis by the acylase [2]: hydrolyzes | % Vmax ([3]; glycine, 0.1 M, pH 9, 30° C.): 14% | Km ([3]; glycine, 0.1 M, pH 9, 30° C.): 5.77 mM

CC(=O)NC(C(=O)O)=C(C)C [ADV, N-acetyl-2,3-didehydrovaline]
Acylase activity after 60 hours of incubation as a function of the inductor (Zoogloea ramigera ABI 1): 0.121 U/mg | Substrate specificity: hydrolysis by the acylase [2]: hydrolyzes | % Vmax ([3]; glycine, 0.1 M, pH 9, 30° C.): 23% | Km ([3]; glycine, 0.1 M, pH 9, 30° C.): 20.9 mM

CC(=O)NC(=CC(C)C)C(=O)O [ADL, N-acetyl-2,3-didehydroleucine]
Induction capacity (Zoogloea ramigera ABI 1): highest induction capacity | Acylase activity after 60 hours of incubation as a function of the inductor (Zoogloea ramigera ABI 1): 0.222 U/mg | rel. activity (%) ([2]; 50 mM test substrate, 0.1 M tris/HCl pH 9, 25° C., hydrolysis rate with N-acetyldehydroleucine = 100%): 100.0% | % Vmax ([3]; glycine, 0.1 M, pH 9, 30° C.): 100% | Km ([3]; glycine, 0.1 M, pH 9, 30° C.): 4.5 mM and 4.53 mM | Km ([3]; glycine, 0.1 M, pH 9, 30° C., listed as N-acetyl-2,3-didehydroleucine): 4.5 mM | % Vmax ([3]; tris-phosphoric acid 0.1 M): 62% | Km ([3]; tris-phosphoric acid 0.1 M): 7.01 mM

CC(=O)NC(=Cc1ccccc1)C(=O)O [ACA, 2-acetylamino cinnamic acid]
Induction capacity (Zoogloea ramigera ABI 1): only slightly active | Acylase activity after 60 hours of incubation as a function of the inductor (Zoogloea ramigera ABI 1): 0.016 U/mg | Substrate specificity: hydrolysis by the acylase [2]: hydrolyzes | % Vmax ([3]; glycine, 0.1 M, pH 9, 30° C.): 46% | Km ([3]; glycine, 0.1 M, pH 9, 30° C.): 2.62 mM

CC(=O)NC(C(=O)O)C(C)C (racemic) [Ac-D,L-valine]
Acylase activity after 60 hours of incubation as a function of the inductor (Zoogloea ramigera ABI 1): 0.031 U/mg

NCC(=O)O [Glycine, glycine]
Influence of activators on substrate splitting (ADL acylase): accelerates the substrate splitting as a function of the concentration | EC50 (ADL acylase; 0.1 M tris/HCl buffer, calculation according to Ingami and Murachi, read-out: Glycine concentration necessary for one-half the maximum reaction acceleration): 90 mM

O=C1CCNC(=O)N1 [Dihydrouracil]
rel. activity (%) [1]: 0%

CC[C@H](C)[C@H](NC(C)=O)C(=O)O [Ac-L-isoleucine]
Acylase activity after 60 hours of incubation as a function of the inductor (Zoogloea ramigera ABI 1): 0.039 U/mg

CC(=O)NC(Cc1c[nH]c2ccccc12)C(=O)O (racemic) [Ac-D,L-tryptophan]
Acylase activity after 60 hours of incubation as a function of the inductor (Zoogloea ramigera ABI 1): 0.018 U/mg
